From the NIST ThermoML archive (doi:10.1021/je060179e)
± gives the expanded uncertainty stated by the source.

Test: xn = mol fraction of the nth substance listed
Settings: for mass density: 101 kPa, Liquid

CCCCCCO [hexan-1-ol] + CCCCCCC
Settings	mass density [kg/m3]	surface tension liquid-gas [mN/m]
288.15 K, x2 = 0.05	814.76 ± 0.58	–
288.15 K, x2 = 0.0507	–	25.6 ± 0.32
288.15 K, x2 = 0.0976	807.66 ± 0.58	–
288.15 K, x2 = 0.1018	–	25.01 ± 0.31
288.15 K, x2 = 0.2001	–	24.02 ± 0.31
288.15 K, x2 = 0.3087	–	23.22 ± 0.3
288.15 K, x2 = 0.3197	775.17 ± 0.58	–
288.15 K, x2 = 0.3943	764.62 ± 0.58	–
288.15 K, x2 = 0.3949	–	22.55 ± 0.29
288.15 K, x2 = 0.5021	–	22.16 ± 0.29
288.15 K, x2 = 0.5088	748.93 ± 0.59	–
288.15 K, x2 = 0.6053	–	21.8 ± 0.28
288.15 K, x2 = 0.6171	734.53 ± 0.6	–
288.15 K, x2 = 0.7045	723.24 ± 0.61	–
288.15 K, x2 = 0.7097	–	21.46 ± 0.28
288.15 K, x2 = 0.8055	–	21.2 ± 0.28
288.15 K, x2 = 0.808	710.42 ± 0.62	–
288.15 K, x2 = 0.9066	–	21.05 ± 0.28
288.15 K, x2 = 0.9072	698.54 ± 0.63	–
288.15 K, x2 = 0.9517	–	20.94 ± 0.27
293.15 K, x2 = 0.0494	–	25.01 ± 0.32
293.15 K, x2 = 0.05	811.17 ± 0.58	–
293.15 K, x2 = 0.0976	804.03 ± 0.58	–
293.15 K, x2 = 0.1036	–	24.45 ± 0.31
293.15 K, x2 = 0.201	–	23.47 ± 0.3
293.15 K, x2 = 0.3037	–	22.65 ± 0.29
293.15 K, x2 = 0.3197	771.33 ± 0.58	–
293.15 K, x2 = 0.3943	760.72 ± 0.59	–
293.15 K, x2 = 0.4422	–	21.75 ± 0.29
293.15 K, x2 = 0.5056	–	21.54 ± 0.28
293.15 K, x2 = 0.5088	744.95 ± 0.59	–
293.15 K, x2 = 0.5979	–	21.26 ± 0.28
293.15 K, x2 = 0.6171	730.47 ± 0.6	–
293.15 K, x2 = 0.6999	–	20.8 ± 0.28
293.15 K, x2 = 0.7045	719.14 ± 0.61	–
293.15 K, x2 = 0.808	706.27 ± 0.62	–
293.15 K, x2 = 0.8091	–	20.54 ± 0.27
293.15 K, x2 = 0.9061	–	20.43 ± 0.27
293.15 K, x2 = 0.9072	694.33 ± 0.63	–
293.15 K, x2 = 0.951	–	20.29 ± 0.27
298.15 K, x2 = 0.0497	–	24.61 ± 0.31
298.15 K, x2 = 0.05	807.56 ± 0.58	–
298.15 K, x2 = 0.0976	800.37 ± 0.58	–
298.15 K, x2 = 0.0987	–	24.05 ± 0.31
298.15 K, x2 = 0.2023	–	22.92 ± 0.3
298.15 K, x2 = 0.3096	–	22.09 ± 0.29
298.15 K, x2 = 0.3197	767.46 ± 0.59	–
298.15 K, x2 = 0.3943	756.8 ± 0.59	–
298.15 K, x2 = 0.4078	–	21.45 ± 0.28
298.15 K, x2 = 0.5054	–	21.04 ± 0.28
298.15 K, x2 = 0.5088	740.94 ± 0.6	–
298.15 K, x2 = 0.6099	–	20.58 ± 0.28
298.15 K, x2 = 0.6171	726.39 ± 0.61	–
298.15 K, x2 = 0.7045	715.01 ± 0.62	–
298.15 K, x2 = 0.7075	–	20.28 ± 0.27
298.15 K, x2 = 0.808	702.07 ± 0.63	–
298.15 K, x2 = 0.8127	–	20.04 ± 0.27
298.15 K, x2 = 0.905	–	19.93 ± 0.27
298.15 K, x2 = 0.9072	690.09 ± 0.64	–
298.15 K, x2 = 0.9515	–	19.74 ± 0.27
303.15 K, x2 = 0.0488	–	24.1 ± 0.31
303.15 K, x2 = 0.05	803.92 ± 0.59	–
303.15 K, x2 = 0.0976	796.68 ± 0.59	–
303.15 K, x2 = 0.1027	–	23.55 ± 0.3
303.15 K, x2 = 0.1865	–	22.62 ± 0.3
303.15 K, x2 = 0.31	–	21.59 ± 0.29
303.15 K, x2 = 0.3197	763.56 ± 0.59	–
303.15 K, x2 = 0.3943	752.84 ± 0.6	–
303.15 K, x2 = 0.4122	–	20.97 ± 0.28
303.15 K, x2 = 0.5086	–	20.49 ± 0.28
303.15 K, x2 = 0.5088	736.9 ± 0.6	–
303.15 K, x2 = 0.6147	–	20 ± 0.27
303.15 K, x2 = 0.6171	722.28 ± 0.61	–
303.15 K, x2 = 0.7045	710.84 ± 0.62	–
303.15 K, x2 = 0.7097	–	19.78 ± 0.27
303.15 K, x2 = 0.808	697.85 ± 0.63	–
303.15 K, x2 = 0.8089	–	19.54 ± 0.27
303.15 K, x2 = 0.9068	–	19.26 ± 0.26
303.15 K, x2 = 0.9072	685.82 ± 0.64	–
303.15 K, x2 = 0.9519	–	19.13 ± 0.26
308.15 K, x2 = 0.0428	–	23.64 ± 0.31
308.15 K, x2 = 0.05	800.26 ± 0.59	–
308.15 K, x2 = 0.0976	792.98 ± 0.59	–
308.15 K, x2 = 0.1025	–	23.03 ± 0.3
308.15 K, x2 = 0.1986	–	22 ± 0.29
308.15 K, x2 = 0.3055	–	21.1 ± 0.28
308.15 K, x2 = 0.3197	759.64 ± 0.6	–
308.15 K, x2 = 0.3943	748.86 ± 0.6	–
308.15 K, x2 = 0.403	–	20.52 ± 0.28
308.15 K, x2 = 0.498	–	20.11 ± 0.27
308.15 K, x2 = 0.5088	732.83 ± 0.61	–
308.15 K, x2 = 0.6165	–	19.57 ± 0.27
308.15 K, x2 = 0.6171	718.13 ± 0.62	–
308.15 K, x2 = 0.7042	–	19.35 ± 0.27
308.15 K, x2 = 0.7045	706.64 ± 0.63	–
308.15 K, x2 = 0.808	693.59 ± 0.64	–
308.15 K, x2 = 0.8118	–	19.06 ± 0.26
308.15 K, x2 = 0.9054	–	18.89 ± 0.26
308.15 K, x2 = 0.9072	681.51 ± 0.65	–
308.15 K, x2 = 0.9503	–	18.77 ± 0.26
